Consider 3 compounds from PMC6813931, “Choline Kinase Emerges as a Promising Drug Target in Gram-Positive Bacteria” (Frontiers in Microbiology, 2019).

Assay [1] has as its target T1, sChoK (S. pneumoniae isoform of choline kinase, LicA) (Streptococcus pneumoniae, UniProt Q8DPI4).
T1 construct: gene pck; ChoK activity measured in cell extracts
T1 sequence (Q8DPI4 1-289): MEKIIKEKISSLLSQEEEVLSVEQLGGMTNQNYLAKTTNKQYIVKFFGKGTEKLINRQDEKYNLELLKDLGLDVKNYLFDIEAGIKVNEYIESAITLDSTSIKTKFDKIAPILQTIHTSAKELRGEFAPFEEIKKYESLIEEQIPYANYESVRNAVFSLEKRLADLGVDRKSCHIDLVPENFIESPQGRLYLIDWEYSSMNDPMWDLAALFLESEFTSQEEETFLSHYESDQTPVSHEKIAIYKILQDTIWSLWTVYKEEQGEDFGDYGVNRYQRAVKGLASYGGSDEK
Briefly: colorimetric ChoK activity assay in cell extracts. The assay is classed as biochemical. The text has this:
colorimetric ChoK activity assay in cell extracts on sChoK (S. pneumoniae isoform of choline kinase, LicA)

Assay [2] addresses T1, sChoK (S. pneumoniae isoform of choline kinase, LicA). The experiment in a line: sChoK activity inhibition (authors' earlier work). Conditions: authors' own earlier result (Zimmerman and Ibrahim 2017), restated here; cited from earlier work. The assay is classed as biochemical. An excerpt:
sChoK activity inhibition (authors' earlier work) on sChoK (S. pneumoniae isoform of choline kinase, LicA)

Turning to `CN(C)c1cc[n+](Cc2ccc(CCCCc3ccc(C[n+]4ccc(N(C)C)cc4)cc3)cc2)cc1` [MN58b], it took 197 µM to reach half-maximal inhibition in assay [1] (IC50). With `C[N+]1(C)CCOC(O)(c2ccc(-c3ccc(C4(O)C[N+](C)(C)CCO4)cc3)cc2)C1` (stereo not drawn) [HC-3], in assay [2], the IC50 was above 2700 µM. Regarding `CN(c1ccc(Cl)cc1)c1cc[n+](Cc2ccc(-c3ccc(C[n+]4ccc(N(C)c5ccc(Cl)cc5)c5ccccc54)cc3)cc2)c2ccccc12` [RSM-932A], the IC50 in assay [1] was determined as 0.5 µM.
